Data on 27 compounds can be found in patent US20130252944A1, “NOVEL FUSED PYRAZOLE DERIVATIVES AND THEIR USE AS ALLOSTERIC MODULATORS OF METABOTROPIC GLUTAMATE RECEPTORS” (priority 2010, published 2013).

A value given as a limit tells only on which side of the number the result lay.

The target in this experiment is T1, recombinant human mGluR4a receptors (Homo sapiens, UniProt Q14833).
T1 construct: expressed in transfected cells
T1 sequence (Q14833 33-912): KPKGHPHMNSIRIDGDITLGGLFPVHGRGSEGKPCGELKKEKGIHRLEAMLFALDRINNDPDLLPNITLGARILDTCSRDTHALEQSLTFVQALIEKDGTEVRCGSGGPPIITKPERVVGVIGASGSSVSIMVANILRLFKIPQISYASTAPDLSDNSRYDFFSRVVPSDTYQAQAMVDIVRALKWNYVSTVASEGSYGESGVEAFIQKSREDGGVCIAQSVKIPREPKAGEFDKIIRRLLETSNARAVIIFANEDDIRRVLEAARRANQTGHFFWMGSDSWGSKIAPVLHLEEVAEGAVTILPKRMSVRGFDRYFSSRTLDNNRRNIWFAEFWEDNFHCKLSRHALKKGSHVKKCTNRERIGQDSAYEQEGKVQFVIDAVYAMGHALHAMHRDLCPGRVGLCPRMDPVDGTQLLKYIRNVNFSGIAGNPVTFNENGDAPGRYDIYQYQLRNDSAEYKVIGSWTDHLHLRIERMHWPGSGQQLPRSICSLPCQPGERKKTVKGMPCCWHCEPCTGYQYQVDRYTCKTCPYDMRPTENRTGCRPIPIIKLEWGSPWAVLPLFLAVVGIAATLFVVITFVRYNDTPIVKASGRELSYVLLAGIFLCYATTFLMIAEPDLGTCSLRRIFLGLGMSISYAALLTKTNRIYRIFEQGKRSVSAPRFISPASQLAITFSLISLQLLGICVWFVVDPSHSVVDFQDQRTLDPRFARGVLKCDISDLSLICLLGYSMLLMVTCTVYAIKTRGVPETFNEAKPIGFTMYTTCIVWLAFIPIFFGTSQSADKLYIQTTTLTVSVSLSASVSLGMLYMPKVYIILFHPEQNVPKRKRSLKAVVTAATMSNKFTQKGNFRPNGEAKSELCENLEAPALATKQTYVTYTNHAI
As to the kind of experiment: Fluorescent cell based Ca2+ mobilization assay (FLIPR) on HEK-293 cells expressing human mGluR4. The following applies: positive allosteric modulation in presence of EC25 glutamate; HEK-293 hmGluR4; mean of at least three independent experiments in duplicate; read-out: Ca^2+ Flux (mean EC50). An excerpt:
mGluR4 Assay on HEK-Expressing Human mGluR4
The compounds of the present invention are positive allosteric modulators of mGluR4 receptor. Their activity was examined on recombinant human mGluR4a receptors by detecting changes in intracellular Ca^2+concentration, using the fluorescent Ca^2+-sensitive dye Fluo4-(AM) and a Fluorometric Imaging Plate Reader (FLIPR, Molecular Devices, Sunnyvale, Calif.).
The cDNA encoding the human metabotropic glutamate receptor (hmGluR4), (accession number NM_000841.1, NCBI Nucleotide database browser), was subcloned into an expression vector containing also the hygromycin resistance gene. In parallel, the cDNA encoding a G protein allowing redirection of the activation signal to intracellular calcium flux was subcloned into a different expression vector containing also the puromycin resistance gene. Transfection of both these vectors into HEK293 cells with PolyFect reagent (Qiagen) according to supplier's protocol, and hygromycin and puromycin treatment allowed selection of antibiotic resistant cells which had integrated stably one or more copies of the plasmids. Positive cellular clones expressing hmGluR4 were identified in a functional assay measuring changes in calcium fluxes in response to glutamate or selective known mGluR4 orthosteric agonists and antagonists.
HEK-293 cells expressing hmGluR4 were maintained in media containing DMEM, dialyzed Fetal Calf Serum (10%), Glutamax™ (2 mM), Penicillin (100 units/mL), Streptomycin (100 μg/mL), Geneticin (100 μg/mL) and Hygromycin-B (40 μg/mL) and puromycin (1 μg/mL) at 37° C./5% CO2.
Human mGluR4 HEK-293 cells were plated out 24 hours prior to FLIPR^384 assay in black-walled, clear-bottomed, poly-L-ornithine-coated 384-well plates at a density of 25,000 cells/well in a glutamine/glutamate free DMEM medium containing foetal bovine serum (10%), penicillin (100 units/mL) and streptomycin (100 μg/mL) at 37° C./5% CO2.
On the day of the assay, the medium was aspirated and the cells were loaded with a 3 μM solution of Fluo4-AM (LuBioScience, Lucerne, Switzerland) in 0.03% pluronic acid. After 1 hour at 37° C./5% CO2, the non incorporated dye was removed by washing cell plate with the assay buffer and the cells were left in the dark at room temperature for […] before testing. All assays were performed in a pH=7.4 buffered-solution containing 20 mM HEPES, 143 mM NaCl, 6 mM KCl, 1 mM MgSO4, 1 mM CaCl2, 0.125 mM sulfapyrazone and 0.1% glucose.
After 10 s of basal fluorescence recording, various concentrations of the compounds of the invention were added to the cells. Changes in fluorescence levels were first monitored for 180 s in order to detect any agonist activity of the compounds. Then the cells were stimulated by an EC25 glutamate concentration for an additional 110 s in order to measure enhancing activities of the compounds of the invention. EC25 glutamate concentration is the concentration giving 25% of the maximal glutamate response.
The concentration-response curves of representative compounds of the present invention were generated using the Prism GraphPad software (Graph Pad Inc, San Diego, USA). The curves were fitted to a four-parameter logistic equation:
(Y=Bottom+(Top−Bottom)/(1+10̂((LogEC50−X)*Hill Slope)
allowing the determination of EC50 values.
The Table 3 below represents the mean EC50 obtained from at least three independent experiments of selected molecules performed in duplicate.
For orientation: Calcium flux is commonly read through the fluorescence of an indicator in the cells.
As usually defined, the EC50 is the concentration needed to bring the measured effect to its halfway point. In the case of `Cc1cc2[nH]ncc2c2nc(Nc3ccccn3)sc12` [Compound 1-1, (4-Methyl-6H-3-thia-1,6,7-triaza-as-indacen-2-yl)-pyridin-2-yl-amine], the EC50 was in the range of 1 to 10 µM.

Consider `Cc1ccnc(Nc2nc3c(s2)C(C)(C)OC(C)c2n[nH]cc2-3)n1` (stereo not drawn) [Compound 1-2, (4-Methyl-pyrimidin-2-yl)-(4,4,6-trimethyl-6,8-dihydro-4H-5-oxa-3-thia-1,7,8-triaza-cyclopenta[e]azulen-2-yl)-amine], for which the EC50 lay in the range of 1 to 10 µM.

In the case of `Cc1ccnc(Nc2nc3c(s2)CCC(O)c2[nH]ncc2-3)n1` (stereo not drawn) [Compound 1-3, 2-(4-Methyl-pyrimidin-2-ylamino)-4,5,6,7-tetrahydro-3-thia-1,7,8-triaza-cyclopenta[e]azulen-6-ol], the EC50 is 0.1 to 1 µM.

With `Cc1ccnc(Nc2nc3c(s2)C(C)(C)OCc2n[nH]cc2-3)n1` [Compound 1-4, (4,4-Dimethyl-6,8-dihydro-4H-5-oxa-3-thia-1,7,8-triaza-cyclopenta[e]azulen-2-yl)-(4-methyl-pyrimidin-2-yl)-amine], the EC50 was in the range of 0.1 to 1 µM.

Turning to `CCCC1Cc2sc(Nc3nccc(C)n3)nc2-c2cn[nH]c21` (stereo not drawn) [Compound 1-5, (4-Methyl-pyrimidin-2-yl)-(5-propyl-5,6-dihydro-4H-3-thia-1,6,7-triaza-as-indacen-2-yl)-amine], the EC50 fell in the range of 0.1 to 1 µM.

Turning to `Cc1ccnc(Nc2nc3c(s2)CCCCc2[nH]ncc2-3)n1` [Compound 1-7, (4-Methyl-pyrimidin-2-yl)-(5,6,7,8-tetrahydro-4H-3-thia-1,8,9-triaza-dicyclopenta[a,c]cycloocten-2-yl)-amine], the EC50 was 0.1 to 1 µM.

On to `CCC1OCc2sc(Nc3nccc(C)n3)nc2-c2c[nH]nc21` (stereo not drawn) [Compound 1-8, (6-Ethyl-6,8-dihydro-4H-5-oxa-3-thia-1,7,8-triaza-cyclopenta[e]azulen-2-yl)-(4-methyl-pyrimidin-2-yl)-amine], for which the EC50 was less than 0.1 µM.

Regarding `Cc1ccnc(Nc2nc3c(s2)CC(C)(C)C(F)(F)c2[nH]ncc2-3)n1` [Compound 1-9, (6,6-Difluoro-5,5-dimethyl-4,5,6,7-tetrahydro-3-thia-1,7,8-triaza-cyclopenta[e]azulen-2-yl)-(4-methyl-pyrimidin-2-yl)-amine], the EC50 fell in the range of 0.1 to 1 µM.

Consider `Cc1ccnc(Nc2nc3c(s2)COC(C)(C)c2n[nH]cc2-3)n1` [Compound 1-10, (6,6-Dimethyl-6,8-dihydro-4H-5-oxa-3-thia-1,7,8-triaza-cyclopenta[e]azulen-2-yl)-(4-methylpyrimidin-2-yl)-amine], for which the EC50 is less than 0.1 µM.

As for `Cc1ccnc(Nc2nc3c(s2)CC(C)Cc2n[nH]cc2-3)n1` (stereo not drawn) [Compound 1-11, (4-Methyl-pyrimidin-2-yl)-(5-methyl-4,5,6,8-tetrahydro-3-thia-1,7,8-triaza-cyclopenta[e]azulen-2-yl)-amine], the EC50 fell in the range of 0.1 to 1 µM.

Regarding `Cc1ccnc(Nc2nc3c(s2)CCC(C)c2n[nH]cc2-3)n1` (stereo not drawn) [Compound 1-12, (4-Methyl-pyrimidin-2-yl)-(6-methyl-4,5,6,8-tetrahydro-3-thia-1,7,8-triaza-cyclopenta[e]azulen-2-yl)-amine], the EC50 was less than 0.1 µM.

For `Cc1ccnc(Nc2nc3c(s2)COC(C(F)(F)F)c2n[nH]cc2-3)n1` (stereo not drawn) [Compound 1-13, (4-Methyl-pyrimidin-2-yl)-(6-trifluoromethyl-6,8-dihydro-4H-5-oxa-3-thia-1,7,8-triaza-cyclopenta[e]azulen-2-yl)-amine], the EC50 was less than 0.1 µM.

As for `COc1ccnc(Nc2nc3c(s2)COC(C)c2[nH]ncc2-3)n1` (stereo not drawn) [Compound 1-14, (4-Methoxy-pyrimidin-2-yl)-(6-methyl-6,7-dihydro-4H-5-oxa-3-thia-1,7,8-triaza-cyclopenta[e]azulen-2-yl)-amine], the EC50 was less than 0.1 µM.

As to `COC1Cc2n[nH]cc2-c2nc(Nc3nccc(C)n3)sc2C1` (stereo not drawn) [Compound 1-15, (5-Methoxy-4,5,6,8-tetrahydro-3-thia-1,7,8-triaza-cyclopenta[e]azulen-2-yl)-(4-methyl-pyrimidin-2-yl)-amine], the EC50 was in the range of 0.1 to 1 µM.

For the compound `Cc1ccnc(Nc2nc3c(s2)COC(C(C)C)c2n[nH]cc2-3)n1` (stereo not drawn) [Compound 1-16, (6-Isopropyl-6,8-dihydro-4H-5-oxa-3-thia-1,7,8-triaza-cyclopenta[e]azulen-2-yl)-(4-methyl-pyrimidin-2-yl)-amine], the EC50 was less than 0.1 µM.

In the case of `Cc1ccnc(Nc2nc3c(s2)CCOc2n[nH]cc2-3)n1` [Compound 1-17, (4,8-Dihydro-5H-6-oxa-3-thia-1,7,8-triaza-cyclopenta[e]azulen-2-yl)-(4-methyl-pyrimidin-2-yl)-amine], the EC50 was less than 0.1 µM.

With `Cc1ccnc(Nc2nc3c(s2)CC(F)(F)Cc2n[nH]cc2-3)n1` [Compound 1-18, (5,5-Difluoro-4,5,6,8-tetrahydro-3-thia-1,7,8-triaza-cyclopenta[e]azulen-2-yl)-(4-methyl-pyrimidin-2-yl)-amine], the EC50 is less than 0.1 µM.

Take `CCC1OCc2sc(Nc3ncc(F)cn3)nc2-c2c[nH]nc21` (stereo not drawn) [Compound 1-19, (6-Ethyl-6,8-dihydro-4H-5-oxa-3-thia-1,7,8-triaza-cyclopenta[e]azulen-2-yl)-(5-fluoro-pyrimidin-2-yl)-amine]: the EC50 is less than 0.1 µM.

Take `CCC1OCc2sc(Nc3nsc(C)n3)nc2-c2c[nH]nc21` (stereo not drawn) [Compound 1-20, (6-Ethyl-6,8-dihydro-4H-5-oxa-3-thia-1,7,8-triaza-cyclopenta[e]azulen-2-yl)-(5-methyl-[1,2,4]thiadiazol-3-yl)-amine]: the EC50 was less than 0.1 µM.

For `CCC1OCc2sc(Nc3ncc(F)c(C)n3)nc2-c2cn[nH]c21` (stereo not drawn) [Compound 1-21, (6-Ethyl-6,7-dihydro-4H-5-oxa-3-thia-1,7,8-triaza-cyclopenta[e]azulen-2-yl)-(5-fluoro-4-methyl-pyrimidin-2-yl)-amine], the EC50 is less than 0.1 µM.

With `CCC1OCc2sc(Nc3nccc(OC)n3)nc2-c2cn[nH]c21` (stereo not drawn) [Compound 1-22, (6-Ethyl-6,7-dihydro-4H-5-oxa-3-thia-1,7,8-triaza-cyclopenta[e]azulen-2-yl)-(4-methoxy-pyrimidin-2-yl)-amine], the EC50 is less than 0.1 µM.

Consider `CC1OCc2sc(Nc3cccc(F)n3)nc2-c2c[nH]nc21` (stereo not drawn) [Compound 1-23, (6-Fluoro-pyridin-2-yl)-(6-methyl-6,8-dihydro-4H-5-oxa-3-thia-1,7,8-triaza-cyclopenta[e]azulen-2-yl)-amine], for which the EC50 was less than 0.1 µM.

Turning to `COC1CCc2sc(Nc3nccc(C)n3)nc2-c2cn[nH]c21` (stereo not drawn) [Compound 1-24, (6-Methoxy-4,5,6,7-tetrahydro-3-thia-1,7,8-triaza-cyclopenta[e]azulen-2-yl)-(4-methyl-pyrimidin-2-yl)-amine], the EC50 was less than 0.1 µM.

Regarding `CC(C)C1OCc2sc(Nc3cccc(F)n3)nc2-c2cn[nH]c21` (stereo not drawn) [Compound 1-26, (6-Fluoro-pyridin-2-yl)-(6-isopropyl-6,7-dihydro-4H-5-oxa-3-thia-1,7,8-triaza-cyclopenta[e]azulen-2-yl)-amine], the EC50 fell in the range of 0.1 to 1 µM.

Turning to `Cc1ccnc(Nc2nc3c(s2)CCC(C(F)(F)F)c2[nH]ncc2-3)n1` (stereo not drawn) [Compound 1-27, (4-Methyl-pyrimidin-2-yl)-(6-trifluoromethyl-4,5,6,7-tetrahydro-3-thia-1,7,8-triaza-cyclopenta[e]azulen-2-yl)-amine], the EC50 was 0.1 to 1 µM.

For the compound `CC(C)C1OCc2sc(Nc3ncc(F)cn3)nc2-c2cn[nH]c21` (stereo not drawn) [Compound 1-28, (5-Fluoro-pyrimidin-2-yl)-(6-isopropyl-6,7-dihydro-4H-5-oxa-3-thia-1,7,8-triaza-cyclopenta[e]azulen-2-yl)-amine], the EC50 is less than 0.1 µM.

Take `Cc1nc(Nc2nc3c(s2)COC(C(C)C)c2[nH]ncc2-3)ncc1F` (stereo not drawn) [Compound 1-29, (5-Fluoro-4-methyl-pyrimidin-2-yl)-(6-isopropyl-6,7-dihydro-4H-5-oxa-3-thia-1,7,8-triaza-cyclopenta[e]azulen-2-yl)-amine]: the EC50 is 0.1 to 1 µM.
